Among the data in PubChem BioAssay AID248 (DTP/NCI, 2004) are T/C values, retold here.

Values joined by “and” are separate entries in the source; they are usually repeats but may differ in a detail not shown here. Identical values can stand only once. Inconclusive results and toxic doses are left out.

The test system of the experiment is L1210 leukemia ip in BDF1 mice, survival T/C. Briefly: NCI In Vivo Anticancer Drug Screen. Data for tumor model L1210 Leukemia (intraperitoneal) in B6D2F1 (BDF1) mice. The note with it: endpoint: mean survival time, higher = longer survival. A digest of the protocol:
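Antitumor effect is assessed in tumor-bearing animals. Survival in the compound arm is compared with a vehicle-dosed control arm and expressed as their quotient.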

[1] abbreviates: dose: 100.0 mg/kg/injection, schedule: Q01DX001 (ip), vehicle: saline.
[2] abbreviates: dose: 200.0 mg/kg/injection, schedule: Q01DX001 (ip), vehicle: saline.
The mark [3] stands for this setting: dose: 100.0 mg/kg/injection, schedule: Q01DX001 (ip), vehicle: saline with Tween-80.
Where [4] appears, read: dose: 100.0 mg/kg/injection, schedule: Q04DX002 (ip), vehicle: Klucel (hydroxypropylcellulose) (HPC).
Setting [5] is: dose: 200.0 mg/kg/injection, schedule: Q04DX002 (ip), vehicle: Klucel (hydroxypropylcellulose) (HPC).
[6] abbreviates: dose: 400.0 mg/kg/injection, schedule: Q04DX002 (ip), vehicle: Klucel (hydroxypropylcellulose) (HPC).
Setting [7] is: dose: 400.0 mg/kg/injection, schedule: Q01DX001 (ip), vehicle: saline.
[8] abbreviates: dose: 100.0 mg/kg/injection, schedule: Q04DX003 (ip), vehicle: saline with Tween-80.
The mark [9] stands for this setting: dose: 200.0 mg/kg/injection, schedule: Q04DX003 (ip), vehicle: saline with Tween-80.
The mark [10] stands for this setting: dose: 400.0 mg/kg/injection, schedule: Q04DX003 (ip), vehicle: saline with Tween-80.
Setting [11] is: dose: 50.0 mg/kg/injection, schedule: Q01DX001 (ip), vehicle: carboxymethylcellulose (CMC).
Setting [12] is: dose: 100.0 mg/kg/injection, schedule: Q01DX001 (ip), vehicle: carboxymethylcellulose (CMC).
Where [13] appears, read: dose: 200.0 mg/kg/injection, schedule: Q01DX001 (ip), vehicle: carboxymethylcellulose (CMC).

On to `O=C(Nc1ccc(NC(=O)Nc2cccc(C3=NCCN3)c2)cc1)Nc1cccc(C2=NCCN2)c1`, for which the T/C runs as follows: (dose: 3.5 mg/kg/injection, schedule: Q#A X Z (ip), vehicle: saline) 106 % of control; (dose: 7.0 mg/kg/injection, schedule: Q01DX Z (ip), vehicle: saline) 115 % of control; (dose: 7.5 mg/kg/injection, schedule: Q01DX006 (iv), vehicle: saline) 98 % of control; (dose: 7.5 mg/kg/injection, schedule: Q#A X Z (ip), vehicle: saline) 117 % of control; (dose: 15.0 mg/kg/injection, schedule: Q01DX006 (iv), vehicle: saline) 107 % of control; (dose: 15.0 mg/kg/injection, schedule: Q01DX Z (ip), vehicle: saline) 111 % of control. Moreover, the T/C (dose: 23.0 mg/kg/injection, schedule: Q03DX Z (ip), vehicle: saline) is 116 % of control; the T/C (dose: 30.0 mg/kg/injection, schedule: Q01DX006 (iv), vehicle: saline) is 116 % of control; the T/C (dose: 30.0 mg/kg/injection, schedule: Q01DX Z (sc), vehicle: carboxymethylcellulose (CMC)) was 102 % of control; the T/C (dose: 47.0 mg/kg/injection, schedule: Q03DX Z (ip), vehicle: saline) is 119 % of control; the T/C (dose: 55.0 mg/kg/injection, schedule: Q07DX Z (ip), vehicle: saline) was 121 % of control; the T/C (dose: 60.0 mg/kg/injection, schedule: Q01DX010 (ip), vehicle: saline) was 151 % of control and 153 % of control. Besides, the T/C by setting is: (dose: 60.0 mg/kg/injection, schedule: Q01DX Z (im), vehicle: saline) 110 % of control; (dose: 60.0 mg/kg/injection, schedule: Q01DX Z (ip), vehicle: carboxymethylcellulose (CMC)) 286 % of control; (dose: 60.0 mg/kg/injection, schedule: Q01DX Z (sc), vehicle: carboxymethylcellulose (CMC)) 110 % of control; (dose: 94.0 mg/kg/injection, schedule: Q03DX Z (ip), vehicle: saline) 121 % of control; (dose: 120.0 mg/kg/injection, schedule: Q01DX010 (ip), vehicle: saline) 182 % of control and 215 % of control; (dose: 120.0 mg/kg/injection, schedule: Q01DX Z (im), vehicle: saline) 100 % of control. In addition, the T/C was 151 % of control (dose: 120.0 mg/kg/injection, schedule: Q01DX Z (ip), vehicle: carboxymethylcellulose (CMC)); 104 % of control (dose: 120.0 mg/kg/injection, schedule: Q01DX Z (sc), vehicle: carboxymethylcellulose (CMC)); 208 % of control (dose: 148.0 mg/kg/injection, schedule: Q01DX Z (ip), vehicle: carboxymethylcellulose (CMC)); 154 % of control (dose: 219.0 mg/kg/injection, schedule: Q07DX Z (ip), vehicle: saline); 298 % of control (dose: 222.0 mg/kg/injection, schedule: Q01DX Z (ip), vehicle: carboxymethylcellulose (CMC)); 236 % of control and 263 % of control (dose: 240.0 mg/kg/injection, schedule: Q01DX010 (ip), vehicle: saline). For the same molecule, the T/C (dose: 240.0 mg/kg/injection, schedule: Q01DX Z (ip), vehicle: carboxymethylcellulose (CMC)) is 318 % of control; the T/C (dose: 333.0 mg/kg/injection, schedule: Q01DX Z (ip), vehicle: carboxymethylcellulose (CMC)) is 353 % of control; the T/C (dose: 480.0 mg/kg/injection, schedule: Q01DX010 (ip), vehicle: saline) was 112 % of control and 268 % of control; the T/C (dose: 480.0 mg/kg/injection, schedule: Q01DX Z (im), vehicle: saline) was 184 % of control; the T/C (dose: 480.0 mg/kg/injection, schedule: Q01DX Z (ip), vehicle: carboxymethylcellulose (CMC)) was 102 % of control and 242 % of control; the T/C (dose: 500.0 mg/kg/injection, schedule: Q01DX Z (ip), vehicle: carboxymethylcellulose (CMC)) was 328 % of control.
In the case of `CCSC(SCC)C(OC(C)=O)C(OC(C)=O)C(OC(C)=O)C(COC(c1ccccc1)(c1ccccc1)c1ccccc1)OC(C)=O` (stereo not given), the T/C is, setting by setting: (dose: 100.0 mg/kg/injection, schedule: Q04DX002 (ip), vehicle: saline with Tween-80) 101 % of control; (dose: 200.0 mg/kg/injection, schedule: Q04DX002 (ip), vehicle: saline with Tween-80) 89 % of control.
In the case of `COc1ccc(N(CCO)CCO)cc1`, the T/C was 96 % of control (dose: 50.0 mg/kg/injection, schedule: Q01DX001 (ip), vehicle: saline); 102 % of control under setting [1]; 96 % of control under setting [2].
Turning to `O=c1/c(=C/c2ccccc2)c2cccc3cccc1c32`, the T/C (dose: 25.0 mg/kg/injection, schedule: Q01DX001 (ip), vehicle: saline with Tween-80) is 97 % of control; the T/C (dose: 50.0 mg/kg/injection, schedule: Q01DX001 (ip), vehicle: saline with Tween-80) was 93 % of control; the T/C under setting [3] was 97 % of control.
Take `O=C(O)c1ccccc1Cc1cccs1`: the T/C by setting is: under setting [3], 98 % of control; (dose: 200.0 mg/kg/injection, schedule: Q01DX001 (ip), vehicle: saline with Tween-80) 95 % of control; (dose: 400.0 mg/kg/injection, schedule: Q01DX001 (ip), vehicle: saline with Tween-80) 92 % of control.
Consider `CC1(O)C2CC3CC(C2)CC1C3` (stereo not given), for which the T/C by setting is: under setting [4], 113 % of control; under setting [5], 98 % of control and 87 % of control; under setting [6], 94 % of control.
As for `ClCCCSc1ccccc1`, the T/C runs as follows: under setting [1], 96 % of control and 111 % of control; under setting [2], 96 % of control and 98 % of control; under setting [7], 97 % of control and 98 % of control.
Turning to `CCSCc1cnc(N)nc1-c1ccccc1`, the T/C was 97 % of control under setting [8], 94 % of control under setting [9] and 86 % of control under setting [10].
As for `CCC(CC)(CCN(C)C)c1ccccc1`, the T/C under setting [11] was 98 % of control, the T/C under setting [12] is 98 % of control and the T/C under setting [13] was 104 % of control.
Regarding `NC(=S)N/N=C/c1ccccc1N`, the T/C is, setting by setting: (dose: 100.0 mg/kg/injection, schedule: Q01DX009 (ip), vehicle: saline with Tween-80) 102 % of control; (dose: 200.0 mg/kg/injection, schedule: Q01DX009 (ip), vehicle: saline with Tween-80) 96 % of control; (dose: 400.0 mg/kg/injection, schedule: Q01DX009 (ip), vehicle: saline with Tween-80) 96 % of control.
For the molecule `CCN(CC)c1ccc(Cc2cc(O)c3c(c2O)C(=O)c2ccccc2C3=O)cc1`, the T/C runs as follows: (dose: 50.0 mg/kg/injection, schedule: Q01DX009 (ip), vehicle: Klucel (hydroxypropylcellulose) (HPC)) 89 % of control; (dose: 100.0 mg/kg/injection, schedule: Q01DX009 (ip), vehicle: Klucel (hydroxypropylcellulose) (HPC)) 104 % of control; under setting [4], 89 % of control; under setting [5], 89 % of control; under setting [6], 96 % of control.
Regarding `CN(C1=CC(=O)C(N(C)C2CCCCC2)=CC1=O)C1CCCCC1`, the T/C was 90 % of control (dose: 7.5 mg/kg/injection, schedule: Q01DX009 (ip), vehicle: saline) and 93 % of control (dose: 15.0 mg/kg/injection, schedule: Q01DX009 (ip), vehicle: saline).
Consider `COC(=O)CCNc1ccccc1C(=O)OC`, for which the T/C reads like this: under setting [11], 100 % of control; under setting [12], 107 % of control; under setting [13], 113 % of control; (dose: 400.0 mg/kg/injection, schedule: Q01DX001 (ip), vehicle: carboxymethylcellulose (CMC)) 100 % of control.
As to `N.N.N.N.N.N#CN=C(N)N.[Co+3].[O-][Cl+3]([O-])([O-])[O-]`, the T/C (dose: 100.0 mg/kg/injection, schedule: Q04DX002 (ip), vehicle: saline) is 171 % of control.
With `Nc1cc([N+](=O)[O-])cnc1NCCc1ccccc1`, the T/C by setting is: under setting [8], 97 % of control; under setting [9], 98 % of control; under setting [10], 104 % of control.
For the molecule `O=C1OC(n2ccc3ccccc32)c2ccccc21` (stereo not given), the T/C runs as follows: under setting [1], 105 % of control; (dose: 100.0 mg/kg/injection, schedule: Q04DX003 (ip), vehicle: saline) 89 % of control; under setting [2], 96 % of control; (dose: 200.0 mg/kg/injection, schedule: Q04DX003 (ip), vehicle: saline) 92 % of control; under setting [7], 102 % of control; (dose: 400.0 mg/kg/injection, schedule: Q04DX003 (ip), vehicle: saline) 89 % of control.
For `O=C1c2ccccc2C(=O)N1CCCCCCCCCN1C(=O)c2ccccc2C1=O`, the T/C reads like this: under setting [4], 113 % of control; under setting [5], 90 % of control; under setting [6], 90 % of control.
